According to US10696685B2, “Polyketides, methods of use and preparation” (Universiteit Leiden, priority 2015, dated 2020):
“Also recorded” adds a separate entry of the source.

Legend:
Bacillus subtilis 168 = test: Disk diffusion antimicrobial activity assay, Bacillus subtilis 168; type: cell-based; conditions: paper disk, 25 μL of 2 μg/μL in chloroform (lugdunomycin: 10 μL of 1 μg/μL in methanol), 37° C., 18 h, FIG. 6 A
From the text: (§1) Streptomyces sp. QL37 was isolated from soil in the Qinling mountains (P. R. China) soil as described previously (Zhu et al, 2014b). The previously undescribed strain was deposited to the collection of the Centraal Bureau voor Schimmelcultures (CBS) in Utrecht, The Netherlands. Streptomyces sp. QL37 was cultivated on Minimal Medium agar plates (MM) (Kieser et al., 2000) with 0.5% glycerol and 1% mannitol (w/v) as the carbon sources, on R5 agar supplemented with 0.8% peptone and 1% mannitol (w/v), or to prepare spore suspensions on SFM agar plates (Soy flour man nitol; (Kieser et al., 2000)). Square agar plates (12 cm×12 cm) were inoculated with 1×10^7 spores from a fresh spore suspension. As indicator strains for the antibacterial assays we used B. subtilis 168 and E. coli JM109 (Sambrook et al., 1989).
(§2) Antimicrobial activity was determined using a disk diffusion assay. For this, compounds were dissolved in chloroform to a concentration of (2 μg/μL) and of this solution, 25 μL was applied on a paper disk (GE Healthcare Bio-Sciences, Pittsburgh), except for lugdunomycin, for which 10 μL of a 1 μg/μL solution in methanol was used. […] After incubation at 37° C. for 18 h, growth inhibition zones (in mm) were recorded as antimicrobial activity.

Escherichia coli JM109 = test: Disk diffusion antimicrobial activity assay, Escherichia coli JM109; type: cell-based; conditions: paper disk, 25 μL of 2 μg/μL in chloroform (lugdunomycin: 10 μL of 1 μg/μL in methanol); 37° C., 18 h; FIG. 6 B, D
From the text: as §1, §2

Which results are given for `COc1cccc2c1[C@@H](O)[C@]13C[C@@H](O)C[C@]1(C(=O)NC3=O)[C@]21Oc2cc(C)cc3ccc(O)c1c23` [Lugdunomycin (1), lugdunomycin]?
antimicrobial activity (growth inhibition) against Gram-positive Bacillus subtilis (Bacillus subtilis 168): showed inhibition efficacy; also recorded: showed antimicrobial activity; antimicrobial activity (growth inhibition) against Gram-negative Escherichia coli JM109 (Escherichia coli JM109): not against
